Source: the NIST ThermoML archive (doi:10.1021/je200806n)
± gives the expanded uncertainty stated by the source.

Columns and labels:
[1] = xn = mol fraction of the nth substance listed; settings: 101.3 kPa, Liquid
[2] = 101.3 kPa, Liquid

CCCC(C)O (centres undefined) [pentan-2-ol] + O=C1CCCCC1
[1]
Settings | mass density, 298.15 K [kg/m3] | mass density, 303.15 K [kg/m3] | mass density, 308.15 K [kg/m3] | mass density, 313.15 K [kg/m3] | viscosity, 298.15 K [mPa·s] | viscosity, 303.15 K [mPa·s] | viscosity, 308.15 K [mPa·s] | viscosity, 313.15 K [mPa·s]
x2 = 0 | 805.41 ± 0.56 | 801.21 ± 0.56 | 796.64 ± 0.57 | 792.51 ± 0.57 | 3.499 ± 0.043 | 2.801 ± 0.034 | 2.334 ± 0.029 | 1.993 ± 0.025
x2 = 0.0824 | 815.31 ± 0.55 | 810.99 ± 0.55 | 806.31 ± 0.56 | 801.99 ± 0.56 | 2.631 ± 0.033 | 2.307 ± 0.029 | 1.891 ± 0.024 | 1.596 ± 0.02
x2 = 0.1615 | 825.12 ± 0.53 | 820.69 ± 0.54 | 815.92 ± 0.54 | 811.53 ± 0.55 | 2.178 ± 0.027 | 1.893 ± 0.024 | 1.541 ± 0.02 | 1.285 ± 0.017
x2 = 0.2401 | 835.08 ± 0.52 | 830.58 ± 0.53 | 825.68 ± 0.53 | 821.06 ± 0.54 | 1.822 ± 0.023 | 1.58 ± 0.02 | 1.265 ± 0.016 | 1.056 ± 0.014
x2 = 0.3492 | 849.18 ± 0.5 | 844.64 ± 0.51 | 839.56 ± 0.52 | 834.77 ± 0.52 | 1.465 ± 0.019 | 1.241 ± 0.016 | 1.007 ± 0.013 | 0.838 ± 0.011
x2 = 0.4397 | 861.19 ± 0.49 | 856.51 ± 0.49 | 851.41 ± 0.5 | 846.47 ± 0.51 | 1.277 ± 0.017 | 1.081 ± 0.014 | 0.881 ± 0.012 | 0.75 ± 0.01
x2 = 0.5607 | 877.71 ± 0.47 | 872.97 ± 0.47 | 867.74 ± 0.48 | 862.65 ± 0.49 | 1.191 ± 0.016 | 1.016 ± 0.014 | 0.865 ± 0.012 | 0.771 ± 0.011
x2 = 0.6496 | 890.14 ± 0.45 | 885.41 ± 0.46 | 880.19 ± 0.47 | 875.09 ± 0.47 | 1.23 ± 0.016 | 1.072 ± 0.014 | 0.935 ± 0.013 | 0.848 ± 0.012
x2 = 0.7399 | 903.04 ± 0.44 | 898.27 ± 0.44 | 893.11 ± 0.45 | 888.08 ± 0.46 | 1.354 ± 0.018 | 1.205 ± 0.016 | 1.062 ± 0.014 | 0.982 ± 0.013
x2 = 0.8498 | 919.21 ± 0.42 | 914.43 ± 0.42 | 909.42 ± 0.43 | 904.33 ± 0.44 | 1.597 ± 0.02 | 1.417 ± 0.018 | 1.294 ± 0.017 | 1.194 ± 0.016
x2 = 0.9396 | 932.71 ± 0.4 | 928.12 ± 0.41 | 923.33 ± 0.41 | 917.99 ± 0.42 | 1.855 ± 0.023 | 1.685 ± 0.021 | 1.523 ± 0.019 | 1.388 ± 0.018

CCCCCC(C)O (centres undefined) [2-heptanol]
[2]
Settings | mass density [kg/m3] | viscosity [mPa·s]
298.15 K | 813.18 ± 0.55 | 5.023 ± 0.06
303.15 K | 809.26 ± 0.55 | 4.151 ± 0.05
308.15 K | 805.01 ± 0.56 | 3.478 ± 0.042
313.15 K | 801.14 ± 0.56 | 2.852 ± 0.035

O=C1CCCCC1 [cyclohexanone] + CCCC(C)O
[1], x1 = 1
Settings | mass density [kg/m3] | viscosity [mPa·s]
298.15 K | 941.91 ± 0.39 | 2.057 ± 0.026
303.15 K | 937.24 ± 0.4 | 1.847 ± 0.023
308.15 K | 932.67 ± 0.4 | 1.694 ± 0.021
313.15 K | 927.72 ± 0.41 | 1.546 ± 0.02
